This is an account of results in US7576105B2, “Benzyl substituted (piperidin-4-yl)aminobenzamido derivatives” (priority 2002, dated 2009).

pKi: −log10 of the molar value.

The target in one test is T1, μ-opioid receptor (Rattus norvegicus, UniProt P33535).
T1 construct: from tissue; host or cells: rat forebrain homogenate (Wistar rat)
Put plainly: Rat brain μ-opioid receptor binding assay. As to conditions: rat forebrain particulate preparation, [3H]DAMGO, 25° C.

A further test concerns the target T2, δ-opioid receptor (Rattus norvegicus, UniProt P33533).
T2 construct: from tissue; host or cells: rat forebrain homogenate (Wistar rat)
Put plainly: Rat brain δ-opioid receptor binding assay. To be noted: rat forebrain particulate preparation, [3H]DPDPE, 25° C.

In test [1] the test system is acetylcholine bromide-induced abdominal constriction. To be noted: mouse, in vivo.

Usually pKi stands for the negative decadic logarithm of the Ki, by convention in mol/L. A higher pKi goes with a small Ki.

T1 sequence (P33535 whole entry): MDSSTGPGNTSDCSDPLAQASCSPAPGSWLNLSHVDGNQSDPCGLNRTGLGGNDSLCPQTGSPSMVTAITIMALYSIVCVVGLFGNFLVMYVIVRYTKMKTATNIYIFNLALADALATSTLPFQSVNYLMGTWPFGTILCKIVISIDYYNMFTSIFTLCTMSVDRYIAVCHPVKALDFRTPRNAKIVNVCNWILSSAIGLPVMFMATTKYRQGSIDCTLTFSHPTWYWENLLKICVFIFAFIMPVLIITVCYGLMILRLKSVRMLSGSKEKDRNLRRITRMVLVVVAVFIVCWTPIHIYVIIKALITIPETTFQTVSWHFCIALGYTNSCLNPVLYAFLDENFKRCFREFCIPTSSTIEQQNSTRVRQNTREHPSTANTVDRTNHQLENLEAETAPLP
T2 sequence (P33533 whole entry): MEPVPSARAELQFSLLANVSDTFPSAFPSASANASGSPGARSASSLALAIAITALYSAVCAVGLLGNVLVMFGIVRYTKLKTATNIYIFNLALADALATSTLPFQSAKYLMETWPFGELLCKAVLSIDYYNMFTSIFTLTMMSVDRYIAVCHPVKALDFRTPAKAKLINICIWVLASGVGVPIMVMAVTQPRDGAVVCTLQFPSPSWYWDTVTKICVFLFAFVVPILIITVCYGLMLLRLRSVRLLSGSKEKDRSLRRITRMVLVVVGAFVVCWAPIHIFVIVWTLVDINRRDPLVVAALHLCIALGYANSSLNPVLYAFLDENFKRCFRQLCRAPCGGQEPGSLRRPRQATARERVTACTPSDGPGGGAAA

`CCCN1CCC(N(Cc2cccc(OC)c2)c2ccc(C(=O)N(CC)CC)cc2)CC1` [Compound 1, N,N-diethyl-4-[3-methoxybenzyl(1-propylpiperidin-4-yl)amino]benzamide]: the pKi on μ-opioid receptor is 5.03; at δ-opioid receptor, 6.62.

Consider `CCCN1CCC(N(Cc2cccc(O)c2)c2ccc(C(=O)N(CC)CC)cc2)CC1` [Compound 2, N,N-Diethyl-4-[3-hydroxybenzyl(1-propylpiperidin-4-yl)amino]benzamide], for which the “MAIT % Inhibition @150 μmol/kg” value in test [1] was 13.3%.

Consider `CCCN1CCC(N(Cc2ccccc2O)c2ccc(C(=O)N(CC)CC)cc2)CC1` [Compound 5, N,N-Diethyl-4-[2-hydroxybenzyl(1-propylpiperidin-4-yl)amino]benzamide], for which the pKi on μ-opioid receptor was no more than 5.00; on δ-opioid receptor, 5.46.

For `CCCN1CCC(N(Cc2ccccc2)c2ccc(C(=O)N(CC)CC)cc2)CC1` [Compound 7, N,N-Diethyl-4-[benzyl(1-propylpiperidin-4-yl)amino]benzamide], the “MAIT % Inhibition @150 μmol/kg” value in test [1] came to 100%.

With `CCN(CC)C(=O)c1ccc(N(Cc2ccccc2)C2CCNCC2)cc1` [Compound 8, N,N-Diethyl-4-[benzyl(piperidin-4-yl)amino]benzamide], the “MAIT % Inhibition @150 μmol/kg” value in test [1] is given as 33.3%.

Take `C=CCN1CCC(N(Cc2ccccc2)c2ccc(C(=O)N(CC)CC)cc2)CC1` [Compound 9, N,N-Diethyl-4-[benzyl(1-allylpiperidin-4-yl)amino]benzamide]: in test [1], the “MAIT % Inhibition @150 μmol/kg” value is on record as 84.6%.

As to `CCN(CC)C(=O)c1ccc(N(Cc2ccccc2)C2CCN(C(C)C)CC2)cc1` [Compound 10, N,N-Diethyl-4-[benzyl(1-isopropylpiperidin-4-yl)amino]benzamide], the pKi is 5.42 at μ-opioid receptor and 6.23 on δ-opioid receptor.

For the compound `CCN(CC)C(=O)c1ccc(N(Cc2ccccc2)C2CCN(CCCN(C)C)CC2)cc1` [Compound 11, N,N-Diethyl-4-[benzyl(1-[3-dimethylaminopropyl]piperidin-4-yl)amino]benzamide], the pKi was no more than 5.00 at μ-opioid receptor and 5.75 on δ-opioid receptor.
